In patent US20260184675A1, “CHIRAL ISOMERIC SULFITE COMPOUND AND APPLICATION THEREOF” (Chengdu Hanova BioSciences Co., Ltd, priority 2024, published 2026):

What was measured:
[1] = system: eggs of Tetranychus urticae; assay: Effect on hatching of eggs of Tetranychus urticae, leaf disc method; type: in vivo; settings: 5 ppm; for Hatching rate (%): 5 days after insecticide delivery
Description: (§1) • (1) Preparation of leaf discs containing eggs: 20 female adult mites of Tetranychus cinnabarinus were transferred onto leaf discs of Vicia faba with a diameter of 2.0 cm (with wetted filter paper at the bottom), then covered it with a lidded culture dish and cultivated under moisturizing conditions, the adult mites were removed within 36 hours and microscopic examination and counting were performed on leaf discs containing eggs. • (2) Investigation of egg population base: Before pesticide soaking, a microscopic examination was conducted on the egg basic number of each leaf disc, with 2 replicates set for each treatment. • (3) Pesticide soaking treatment: The leaf butterflies loaded with mite eggs were soaked in clear water and sulfite compounds for 10 seconds, respectively, then taken out and cultivated under moisturizing conditions. Each treatment should be repeated for no less than 3 times. • (4) Cultivation and observation: The […] were cultivated under normal conditions. Five days after insecticide delivery, the hatching status of mite eggs was investigated. • Note: The temperature and humidity conditions of the constant temperature and humidity incubator after the treatment should be controlled so as to avoid excessive temperature differences, which may cause generation and dripping of condensate water in the culture dish, resulting in abnormal death of eggs due to soaking in water; it is also necessary to ensure sufficient strong ambient light, without directing irradiating the leaves. • (5) Survey of Results: The experimental materials of each treatment group were regularly hydrated and moisturized, and the hatching of eggs was observed. On the 7th day after insecticide delivery, the number of hatched eggs for each treatment was recorded, and the survey of results was recorded in the original notebook. According to the experimental requirements and characteristics of agents, the survey time can be shortened or extended.
(§2) • 1) Surveying and recording the number of hatched eggs for each treatment. • 2) Photographing and recording whether there was any pesticide damage to the leaf discs of Vicia faba. • 3) Recording the developmental status of experimental mite eggs, behavior status of nymph mites, including abnormal phenomena such as delayed or stopped development of mite eggs, difficulty in breaking hull for nymph mites, or painful struggles after hatching, etc. • (6) Calculation method: Based on the survey data, the prevention and control effect of each treatment was calculated according to the following formula, and the calculation results were kept to two decimal places.
(§3) This test adopted the method in Test Example 1 of technical section, mainly used leaf disc method to explore the inhibitory effect on hatching of eggs of Tetranychus urticae by compounds 1-(S,S), 1-(S,R), 1-(R,R), 1-(R,S), 1′-(S,S), 1′-(S,R), 1′-(R,R), 1′-(R,S), compound 1, compound 1′, S-10, R-10, S-10′, R-10′, compound 10, compound 10′, compound 19-(S,S), 19-(S,R), 19-(R,R), 19-(R,S), 19′-(S,S), 19′-(S,R), 19′-(R,R), 19′-(R,S), compound 19, and compound 19′. The concentration of all compounds was 5 ppm.

eggs of Thrips = assay: Effect on hatching of eggs of Thrips, leaf disc method; type: in vivo; settings: 100 ppm; for Hatching rate (%): 5 days after insecticide delivery
Description: as §1, §2
as §3, with “Thrips” for “Tetranychus urticae”, “by” for “by compounds”, “100” for “5”

[2] = system: pest eggs of Tetranychus cinnabarinus; assay: Effect on hatching of pest eggs of Tetranychus cinnabarinus, leaf disc method; type: in vivo; settings: for Hatching rate (%): 7 days after insecticide delivery; for inhibitory effect on the hatching of pest eggs of Tetranychus cinnabarinus (in words): 1 ppm
Description: as §1, with “extended. • 1) Surveying and recording the number of hatched eggs for each treatment. • 2) Photographing and recording whether there was any pesticide damage to the leaf discs of Vicia faba. • 3) Recording the developmental status of experimental mite eggs, behavior status of nymph mites, including abnormal phenomena such as delayed or stopped development of mite eggs, difficulty in breaking hull for nymph mites, or painful struggles after hatching, etc. • (6) Calculation method: Based on the survey data, the prevention and control effect of each treatment was calculated according to the following formula, and the calculation results were kept to two decimal places. [formula] [formula] [table]” for “extended.”

Magnaporthe grisea = type: cell-based; settings: 100 ppm; for Average antifungal rate (%) / Antifungal rate of Magnaporthe grisea (%), Replicate 1 / Antifungal rate of Magnaporthe grisea (%), Replicate 2 / Antifungal rate of Magnaporthe grisea (%), Replicate 3: 96-well plate; for Average antifungal rate (%): average of 3 replicates
[3] = Replicate 1, listed as 1-(R, R)
[4] = Replicate 2, listed as 1-(R, R)
[5] = Replicate 3, listed as 1-(R, R)

Structure (SMILES) | inhibitory activity on the hatching of eggs of Tetranychus urticae (in words) [1] | inhibitory activity on the hatching of eggs of Thrips (in words) (eggs of Thrips) | Hatching rate (%) ([2]; 0.25 mg/L, Replicate 1) | Hatching rate (%) ([2]; 0.25 mg/L, Replicate 2) | Number of hatched larvae 7 days after insecticide delivery ([2]; 0.25 mg/L, Replicate 1) | Number of hatched larvae 7 days after insecticide delivery ([2]; 0.25 mg/L, Replicate 2) | Hatching rate (%) ([2]; 0.5 mg/L, Replicate 1) | Hatching rate (%) ([2]; 0.5 mg/L, Replicate 2) | Number of hatched larvae 7 days after insecticide delivery ([2]; 0.5 mg/L, Replicate 1) | Number of hatched larvae 7 days after insecticide delivery ([2]; 0.5 mg/L, Replicate 2) | Hatching rate (%) ([2]; 1 mg/L, Replicate 1) | Hatching rate (%) ([2]; 1 mg/L, Replicate 2) | Number of hatched larvae 7 days after insecticide delivery ([2]; 1 mg/L, Replicate 1) | Number of hatched larvae 7 days after insecticide delivery ([2]; 1 mg/L, Replicate 2) | inhibitory effect on the hatching of pest eggs of Tetranychus cinnabarinus (in words) [2] | inhibitory rate against Magnaporthe grisea (in words) (Magnaporthe grisea) | Average antifungal rate (%) (Magnaporthe grisea) | Antifungal rate of Magnaporthe grisea (%), Replicate 1 (Magnaporthe grisea) [%] | Antifungal rate of Magnaporthe grisea (%), Replicate 2 (Magnaporthe grisea) [%] | Antifungal rate of Magnaporthe grisea (%), Replicate 3 (Magnaporthe grisea) [%] | also measured
CC[C@@H](COc1ccc(Cl)cc1Cl)OS(=O)OCCF (stereo partly drawn) [19-(S,R)] | strong inhibitory activities | strong inhibitory activities | 43.55 | 45.61 | 35 | 31 | 5.13 | 5.26 | 74 | 54 | 0.00 | 0.00 | 60 | 68 | excellent inhibitory effects | strong inhibitory rate | 99.77 | 100.10 | 99.34 | 99.87 | Hatching rate (%) ([1]; Replicate 1): 0.00%; Hatching rate (%) ([1]; Replicate 2): 0.00%; Number of hatched larvae 5 days after insecticide delivery ([1]; Replicate 1): 0; Number of hatched larvae 5 days after insecticide delivery ([1]; Replicate 2): 0; Hatching rate (%) (eggs of Thrips; Replicate 1): 0.00%; Hatching rate (%) (eggs of Thrips; Replicate 2): 0.00%; Hatching rate (%) (eggs of Thrips; Replicate 3): 0.00%; Number of hatched larvae 5 days after insecticide delivery (eggs of Thrips; Replicate 1): 0; Number of hatched larvae 5 days after insecticide delivery (eggs of Thrips; Replicate 2): 0; Number of hatched larvae 5 days after insecticide delivery (eggs of Thrips; Replicate 3): 0
CC(C)(COc1ccc(Cl)cc1Cl)OS(=O)OCCF (stereo not drawn) [Compound S-10] | strong inhibitory activities | strong inhibitory activities | 39.51 | 41.79 | 49 | 39 | 4.62 | 3.39 | 62 | 57 | 0.00 | 0.00 | 78 | 84 | excellent inhibitory effects | strong inhibitory rate | 98.62 | 98.63 | 99.72 | 97.51 | Hatching rate (%) ([1]; Replicate 1): 0.00%; Hatching rate (%) ([1]; Replicate 2): 0.00%; Number of hatched larvae 5 days after insecticide delivery ([1]; Replicate 1): 0; Number of hatched larvae 5 days after insecticide delivery ([1]; Replicate 2): 0; Hatching rate (%) (eggs of Thrips; Replicate 1): 0.00%; Hatching rate (%) (eggs of Thrips; Replicate 2): 0.00%; Hatching rate (%) (eggs of Thrips; Replicate 3): 0.00%; Number of hatched larvae 5 days after insecticide delivery (eggs of Thrips; Replicate 1): 0; Number of hatched larvae 5 days after insecticide delivery (eggs of Thrips; Replicate 2): 0; Number of hatched larvae 5 days after insecticide delivery (eggs of Thrips; Replicate 3): 0
C[C@H](COS(=O)OCCF)Oc1ccc(Cl)cc1Cl (stereo partly drawn) [1-(R,R)] | strong inhibitory activities | strong inhibitory activities | 45.45 | 45.10 | 36 | 28 | 4.26 | 5.56 | 45 | 68 | 0.00 | 0.00 | 56 | 62 | excellent inhibitory effects | strong inhibitory rate | 98.96 | 99.41 | 99.12 | 98.34 | Hatching rate (%) [1, 3]: 0.00%; Hatching rate (%) [1, 4]: 0.00%; Number of hatched larvae 5 days after insecticide delivery [1, 3]: 0; Number of hatched larvae 5 days after insecticide delivery [1, 4]: 0; Hatching rate (%) (eggs of Thrips; [3]): 0.00%; Hatching rate (%) (eggs of Thrips; [4]): 0.00%; Hatching rate (%) (eggs of Thrips; [5]): 0.00%; Number of hatched larvae 5 days after insecticide delivery (eggs of Thrips; [3]): 0; Number of hatched larvae 5 days after insecticide delivery (eggs of Thrips; [4]): 0; Number of hatched larvae 5 days after insecticide delivery (eggs of Thrips; [5]): 0
